Measurements reported in ChEMBL document CHEMBL1681699 (Bioorg Med Chem, 2011).

How the values were obtained:
[1] = Biodistribution in Sprague-Dawley rat hippocampus at 3.7 x 10^3 to 5.55 x 10'3 GBq, iv after 30 mins; assay type: ADME, organism-based; settings: in vivo, 0.5 h
[2] = Biodistribution in Sprague-Dawley rat hippocampus at 3.7 x 10^3 to 5.55 x 10^3 GBq, iv after 60 mins; assay type: ADME, organism-based; settings: in vivo, 1 h
Striatum [3] = assay: Biodistribution in Sprague-Dawley rat striatum at 3.7 x 10^3 to 5.55 x 10^3 GBq, iv after 5 mins; assay type: ADME, organism-based; settings: in vivo
Striatum [4] = assay: Biodistribution in Sprague-Dawley rat striatum at 3.7 x 10^3 to 5.55 x 10'3 GBq, iv after 30 mins; assay type: ADME, organism-based; settings: in vivo, 0.5 h
Striatum [5] = assay: Biodistribution in Sprague-Dawley rat striatum at 3.7 x 10^3 to 5.55 x 10^3 GBq, iv after 60 mins; assay type: ADME, organism-based; settings: in vivo, 1 h
Cerebellum [6] = assay: Biodistribution in Sprague-Dawley rat cerebellum at 3.7 x 10'3 to 5.55 x 10^3 GBq, iv after 5 mins; assay type: ADME, organism-based; settings: in vivo
Cerebellum [7] = assay: Biodistribution in Sprague-Dawley rat cerebellum at 3.7 x 10'3 to 5.55 x 10'3 GBq, iv after 30 mins; assay type: ADME, organism-based; settings: in vivo, 0.5 h
Cerebellum [8] = assay: Biodistribution in Sprague-Dawley rat cerebellum at 3.7 x 10'3 to 5.55 x 10^3 GBq, iv after 60 mins; assay type: ADME, organism-based; settings: in vivo, 1 h
[9] = Metabolic stability in Sprague-Dawley rat brain assessed as radioactive compound remaining after 2 mins; assay type: ADME, tissue-based; settings: read-out: Stability
[10] = Metabolic stability in Sprague-Dawley rat brain assessed as radioactive compound remaining after 20 mins; assay type: ADME, tissue-based; settings: read-out: Stability
[11] = Metabolic stability in Sprague-Dawley rat brain assessed as radioactive compound remaining after 40 mins; assay type: ADME, tissue-based; settings: read-out: Stability
[12] = Metabolic stability in Sprague-Dawley rat brain assessed as radioactive compound remaining after 60 mins; assay type: ADME, tissue-based; settings: read-out: Stability
Brain [13] = assay: Metabolic stability in Sprague-Dawley rat brain assessed as 4-(1-Methyl-4-pyridin-4-yl-1H-pyrazol-3-yl)-phenol remaining after 2 mins; assay type: ADME, tissue-based
Brain [14] = assay: Metabolic stability in Sprague-Dawley rat brain assessed as 4-(1-Methyl-4-pyridin-4-yl-1H-pyrazol-3-yl)-phenol remaining after 20 mins; assay type: ADME, tissue-based
Brain [15] = assay: Metabolic stability in Sprague-Dawley rat brain assessed as 4-(1-Methyl-4-pyridin-4-yl-1H-pyrazol-3-yl)-phenol remaining after 40 mins; assay type: ADME, tissue-based
Brain [16] = assay: Metabolic stability in Sprague-Dawley rat brain assessed as 4-(1-Methyl-4-pyridin-4-yl-1H-pyrazol-3-yl)-phenol remaining after 60 mins; assay type: ADME, tissue-based
[17] = Metabolic stability in Sprague-Dawley rat plasma assessed as radioactive compound remaining after 2 mins; assay type: ADME, cell-free; settings: read-out: Stability
[18] = Metabolic stability in Sprague-Dawley rat plasma assessed as radioactive compound remaining after 20 mins; assay type: ADME, cell-free; settings: read-out: Stability
[19] = Metabolic stability in Sprague-Dawley rat plasma assessed as radioactive compound remaining after 40 mins; assay type: ADME, cell-free; settings: read-out: Stability
[20] = Metabolic stability in Sprague-Dawley rat plasma assessed as radioactive compound remaining after 60 mins; assay type: ADME, cell-free; settings: read-out: Stability
Plasma [21] = assay: Metabolic stability in Sprague-Dawley rat plasma assessed as 4-(1-Methyl-4-pyridin-4-yl-1H-pyrazol-3-yl)-phenol remaining after 2 mins; assay type: ADME, cell-free
Plasma [22] = assay: Metabolic stability in Sprague-Dawley rat plasma assessed as 4-(1-Methyl-4-pyridin-4-yl-1H-pyrazol-3-yl)-phenol remaining after 20 mins; assay type: ADME, cell-free
Plasma [23] = assay: Metabolic stability in Sprague-Dawley rat plasma assessed as 4-(1-Methyl-4-pyridin-4-yl-1H-pyrazol-3-yl)-phenol remaining after 40 mins; assay type: ADME, cell-free
Plasma [24] = assay: Metabolic stability in Sprague-Dawley rat plasma assessed as 4-(1-Methyl-4-pyridin-4-yl-1H-pyrazol-3-yl)-phenol remaining after 60 mins; assay type: ADME, cell-free
Plasma [25] = assay: Metabolic stability in Sprague-Dawley rat plasma assessed as 4-(1-Methyl-4-pyridin-4-yl-1H-pyrazol-3-yl)-phenol remaining retention time administered intravenously measured after 60 mins postinjection; assay type: ADME, organism-based; settings: in vivo, iv
Plasma [26] = assay: Metabolic stability in Sprague-Dawley rat plasma assessed as compound remaining retention time administered intravenously measured after 60 mins postinjection; assay type: ADME, organism-based; settings: in vivo, iv, 1 h
Brain [27] = assay: Metabolic stability in Sprague-Dawley rat brain assessed as 4-(1-Methyl-4-pyridin-4-yl-1H-pyrazol-3-yl)-phenol remaining retention time administered intravenously measured after 60 mins postinjection; assay type: ADME, organism-based; settings: in vivo, iv
Brain [28] = assay: Metabolic stability in Sprague-Dawley rat brain assessed as compound remaining retention time administered intravenously measured after 60 mins postinjection; assay type: ADME, organism-based; settings: in vivo, iv, 1 h
Blood [29] = assay: Biodistribution in Sprague-Dawley rat blood at 3.7 x 10^3 to 5.55 x 10^3 GBq, iv after 5 mins; assay type: ADME, organism-based; settings: in vivo
Blood [30] = assay: Biodistribution in Sprague-Dawley rat blood at 3.7 x 10^3 to 5.55 x 10'3 GBq, iv after 30 mins; assay type: ADME, organism-based; settings: in vivo, 0.5 h
Blood [31] = assay: Biodistribution in Sprague-Dawley rat blood at 3.7 x 10^3 to 5.55 x 10^3 GBq, iv after 60 mins; assay type: ADME, organism-based; settings: in vivo, 1 h
Lung [32] = assay: Biodistribution in Sprague-Dawley rat lung at 3.7 x 10^3 to 5.55 x 10^3 GBq, iv after 5 mins; assay type: ADME, organism-based; settings: in vivo
Lung [33] = assay: Biodistribution in Sprague-Dawley rat lung at 3.7 x 10^3 to 5.55 x 10'3 GBq, iv after 30 mins; assay type: ADME, organism-based; settings: in vivo, 0.5 h
Lung [34] = assay: Biodistribution in Sprague-Dawley rat lung at 3.7 x 10^3 to 5.55 x 10^3 GBq, iv after 60 mins; assay type: ADME, organism-based; settings: in vivo, 1 h
Liver [35] = assay: Biodistribution in Sprague-Dawley rat liver at 3.7 x 10^3 to 5.55 x 10^3 GBq, iv after 5 mins; assay type: ADME, organism-based; settings: in vivo
Liver [36] = assay: Biodistribution in Sprague-Dawley rat liver at 3.7 x 10^3 to 5.55 x 10'3 GBq, iv after 30 mins; assay type: ADME, organism-based; settings: in vivo, 0.5 h
Liver [37] = assay: Biodistribution in Sprague-Dawley rat liver at 3.7 x 10^3 to 5.55 x 10^3 GBq, iv after 60 mins; assay type: ADME, organism-based; settings: in vivo, 1 h
Muscle tissue [38] = assay: Biodistribution in Sprague-Dawley rat muscle at 3.7 x 10^3 to 5.55 x 10^3 GBq, iv after 5 mins; assay type: ADME, organism-based; settings: in vivo
Muscle tissue [39] = assay: Biodistribution in Sprague-Dawley rat muscle at 3.7 x 10^3 to 5.55 x 10'3 GBq, iv after 30 mins; assay type: ADME, organism-based; settings: in vivo, 0.5 h
Muscle tissue [40] = assay: Biodistribution in Sprague-Dawley rat muscle at 3.7 x 10^3 to 5.55 x 10^3 GBq, iv after 60 mins; assay type: ADME, organism-based; settings: in vivo, 1 h
[41] = Biodistribution in Sprague-Dawley rat fat at 3.7 x 10^3 to 5.55 x 10^3 GBq, iv after 5 mins; assay type: ADME, organism-based, Adipose tissue; settings: in vivo
[42] = Biodistribution in Sprague-Dawley rat fat at 3.7 x 10^3 to 5.55 x 10'3 GBq, iv after 30 mins; assay type: ADME, organism-based, Adipose tissue; settings: in vivo, 0.5 h
[43] = Biodistribution in Sprague-Dawley rat fat at 3.7 x 10^3 to 5.55 x 10^3 GBq, iv after 60 mins; assay type: ADME, organism-based, Adipose tissue; settings: in vivo, 1 h
Heart [44] = assay: Biodistribution in Sprague-Dawley rat heart at 3.7 x 10^3 to 5.55 x 10^3 GBq, iv after 5 mins; assay type: ADME, organism-based; settings: in vivo
Heart [45] = assay: Biodistribution in Sprague-Dawley rat heart at 3.7 x 10^3 to 5.55 x 10'3 GBq, iv after 30 mins; assay type: ADME, organism-based; settings: in vivo, 0.5 h
Heart [46] = assay: Biodistribution in Sprague-Dawley rat heart at 3.7 x 10^3 to 5.55 x 10^3 GBq, iv after 60 mins; assay type: ADME, organism-based; settings: in vivo, 1 h
Kidney [47] = assay: Biodistribution in Sprague-Dawley rat kidney at 3.7 x 10^3 to 5.55 x 10^3 GBq, iv after 5 mins; assay type: ADME, organism-based; settings: in vivo
Kidney [48] = assay: Biodistribution in Sprague-Dawley rat kidney at 3.7 x 10^3 to 5.55 x 10'3 GBq, iv after 30 mins; assay type: ADME, organism-based; settings: in vivo, 0.5 h
Kidney [49] = assay: Biodistribution in Sprague-Dawley rat kidney at 3.7 x 10^3 to 5.55 x 10^3 GBq, iv after 60 mins; assay type: ADME, organism-based; settings: in vivo, 1 h
Testes [50] = assay: Biodistribution in Sprague-Dawley rat testes at 3.7 x 10^3 to 5.55 x 10^3 GBq, iv after 5 mins; assay type: ADME, organism-based, Testis; settings: in vivo
Testes [51] = assay: Biodistribution in Sprague-Dawley rat testes at 3.7 x 10^3 to 5.55 x 10'3 GBq, iv after 30 mins; assay type: ADME, organism-based, Testis; settings: in vivo, 0.5 h
Testes [52] = assay: Biodistribution in Sprague-Dawley rat testes at 3.7 x 10^3 to 5.55 x 10^3 GBq, iv after 60 mins; assay type: ADME, organism-based, Testis; settings: in vivo, 1 h
Brain [53] = assay: Biodistribution in Sprague-Dawley rat brain at 3.7 x 10^3 to 5.55 x 10^3 GBq, iv after 5 mins; assay type: ADME, organism-based; settings: in vivo
Brain [54] = assay: Biodistribution in Sprague-Dawley rat brain at 3.7 x 10^3 to 5.55 x 10'3 GBq, iv after 30 mins; assay type: ADME, organism-based; settings: in vivo, 0.5 h
Brain [55] = assay: Biodistribution in Sprague-Dawley rat brain at 3.7 x 10^3 to 5.55 x 10^3 GBq, iv after 60 mins; assay type: ADME, organism-based; settings: in vivo, 1 h
Cortex [56] = assay: Biodistribution in Sprague-Dawley rat cortex at 3.7 x 10^3 to 5.55 x 10^3 GBq, iv after 5 mins; assay type: ADME, organism-based; settings: in vivo
Cortex [57] = assay: Biodistribution in Sprague-Dawley rat cortex at 3.7 x 10^3 to 5.55 x 10'3 GBq, iv after 30 mins; assay type: ADME, organism-based; settings: in vivo, 0.5 h
Cortex [58] = assay: Biodistribution in Sprague-Dawley rat cortex at 3.7 x 10^3 to 5.55 x 10^3 GBq, iv after 60 mins; assay type: ADME, organism-based; settings: in vivo, 1 h
[59] = Biodistribution in Sprague-Dawley rat hippocampus at 3.7 x 10^3 to 5.55 x 10^3 GBq, iv after 5 mins; assay type: ADME, organism-based; settings: in vivo

## [11CH3]n1cc(-c2ccncc2)c(-c2ccc(OCc3ccc4ccccc4n3)cc2)n1
[1]
  Drug uptake: 0.05 % ID/g
[2]
  Drug uptake: 0.051 % ID/g
Striatum [3]
  Drug uptake: 0.3 % ID/g
Striatum [4]
  Drug uptake: 0.236 % ID/g
Striatum [5]
  Drug uptake: 0.164 % ID/g
Cerebellum [6]
  Drug uptake: 0.133 % ID/g
Cerebellum [7]
  Drug uptake: 0.036 % ID/g
Cerebellum [8]
  Drug uptake: 0.035 % ID/g
[9]
  remaining at 2 min: 98.7%
[10]
  remaining at 20 min: 94.8%
[11]
  remaining at 40 min: 84.7%
[12]
  remaining at 1 h: 78.6%
Brain [13]
  Activity: 1.03%
Brain [14]
  Activity: 3.45%
Brain [15]
  Activity: 11.47%
Brain [16]
  Activity: 15.87%
[17]
  remaining at 2 min: 98.3%
[18]
  remaining at 20 min: 74.2%
[19]
  remaining at 40 min: 52.6%
[20]
  remaining at 1 h: 49.3%
Plasma [21]
  Activity: 1.23%
Plasma [22]
  Activity: 19.13%
Plasma [23]
  Activity: 35.19%
Plasma [24]
  Activity: 40.72%
Plasma [25]
  Time: 3 min
Plasma [26]
  Time: 3 min
Brain [27]
  Time: 10.5 min
Brain [28]
  Time: 10.5 min
Blood [29]
  Drug uptake: 0.123 % ID/g
Blood [30]
  Drug uptake: 0.065 % ID/g
Blood [31]
  Drug uptake: 0.047 % ID/g
Lung [32]
  Drug uptake: 0.317 % ID/g
Lung [33]
  Drug uptake: 0.155 % ID/g
Lung [34]
  Drug uptake: 0.09 % ID/g
Liver [35]
  Drug uptake: 2.766 % ID/g
Liver [36]
  Drug uptake: 3.395 % ID/g
Liver [37]
  Drug uptake: 3.364 % ID/g
Muscle tissue [38]
  Drug uptake: 0.093 % ID/g
Muscle tissue [39]
  Drug uptake: 0.059 % ID/g
Muscle tissue [40]
  Drug uptake: 0.039 % ID/g
[41]
  Drug uptake: 0.124 % ID/g
[42]
  Drug uptake: 0.075 % ID/g
[43]
  Drug uptake: 0.1 % ID/g
Heart [44]
  Drug uptake: 0.264 % ID/g
Heart [45]
  Drug uptake: 0.102 % ID/g
Heart [46]
  Drug uptake: 0.068 % ID/g
Kidney [47]
  Drug uptake: 1.229 % ID/g
Kidney [48]
  Drug uptake: 0.366 % ID/g
Kidney [49]
  Drug uptake: 0.314 % ID/g
Testes [50]
  Drug uptake: 0.16 % ID/g
Testes [51]
  Drug uptake: 0.098 % ID/g
Testes [52]
  Drug uptake: 0.068 % ID/g
Brain [53]
  Drug uptake: 0.162 % ID/g
Brain [54]
  Drug uptake: 0.066 % ID/g
Brain [55]
  Drug uptake: 0.056 % ID/g
Cortex [56]
  Drug uptake: 0.133 % ID/g
Cortex [57]
  Drug uptake: 0.044 % ID/g
Cortex [58]
  Drug uptake: 0.044 % ID/g
[59]
  Drug uptake: 0.169 % ID/g
